These results are taken from PubChem BioAssay AID330 (DTP/NCI, 2004).

SMILES strings stand for the structures. Values joined by “and” are separate entries in the source; they are usually repeats but may differ in a detail not shown here. Identical values can stand only once. Inconclusive results and toxic doses are left out. Peptide text beside a SMILES is read from it.

The assay has as its system P388 leukemia ip, CD2F1 mice, survival T/C. Description: NCI In Vivo Anticancer Drug Screen. Data for tumor model P388 Leukemia (intraperitoneal) in CD2F1 (CDF1) mice. The conditions noted are these: endpoint: median survival time, higher = longer survival. A digest of the protocol: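 Mice carrying the transplanted tumor received test compound or vehicle. Survival was recorded in each group, and the value is the treated-group measurement divided by that of the vehicle-treated control group.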

The mark [1] stands for this setting: dose: 1.56 mg/kg/injection, schedule: Q01DX009 (ip), vehicle: saline with Tween-80.
Setting [2] is: dose: 6.25 mg/kg/injection, schedule: Q01DX009 (ip), vehicle: saline.
The mark [3] stands for this setting: dose: 12.5 mg/kg/injection, schedule: Q01DX009 (ip), vehicle: saline.
Where [4] appears, read: dose: 50.0 mg/kg/injection, schedule: Q01DX009 (ip), vehicle: saline.
Where [5] appears, read: dose: 100.0 mg/kg/injection, schedule: Q01DX009 (ip), vehicle: saline.
[6] abbreviates: dose: 200.0 mg/kg/injection, schedule: Q01DX009 (ip), vehicle: saline.
Where [7] appears, read: dose: 50.0 mg/kg/injection, schedule: Q01DX009 (ip), vehicle: saline with Tween-80.
The mark [8] stands for this setting: dose: 50.0 mg/kg/injection, schedule: Q01DX005 (ip), vehicle: Klucel (hydroxypropylcellulose) (HPC).
Setting [9] is: dose: 100.0 mg/kg/injection, schedule: Q01DX005 (ip), vehicle: Klucel (hydroxypropylcellulose) (HPC).
The mark [10] stands for this setting: dose: 200.0 mg/kg/injection, schedule: Q01DX005 (ip), vehicle: Klucel (hydroxypropylcellulose) (HPC).
Setting [11] is: dose: 25.0 mg/kg/injection, schedule: Q01DX009 (ip), vehicle: saline.
Setting [12] is: dose: 50.0 mg/kg/injection, schedule: Q01DX001 (ip), vehicle: Klucel (hydroxypropylcellulose) (HPC).
The mark [13] stands for this setting: dose: 100.0 mg/kg/injection, schedule: Q01DX001 (ip), vehicle: Klucel (hydroxypropylcellulose) (HPC).

For the compound `CC(=O)OC1C(CO)OC2C1Oc1nc(=N)c(F)cn12` (stereo not given), the T/C reads like this: (dose: 0.39 mg/kg/injection, schedule: Q01DX009 (ip), vehicle: saline with Tween-80) 116 % of control; under setting [1], 160 % of control; (dose: 3.13 mg/kg/injection, schedule: Q01DX009 (ip), vehicle: saline with Tween-80) 91 % of control; (dose: 3.13 mg/kg/injection, schedule: Q01DX009 (ip), vehicle: saline) 101 % of control; under setting [2], 87 % of control and 88 % of control and 93 % of control; under setting [3], 117 % of control. Moreover, under setting [4], the T/C was 161 % of control.

Regarding `CC(=O)OC1CC23COC(=O)C4OC45CCO/C(=C/C/C=C\C(=O)OC4C[C@@H](OC2C=C1C)[C@@]1(CO1)[C@]43C)C5O` (stereo not given in full), the T/C reads like this: (dose: 0.32 mg/kg/injection, schedule: Q01DX009 (ip), vehicle: Klucel (hydroxypropylcellulose) (HPC)) 100 % of control; (dose: 125.0 micrograms/kg/injection, schedule: Q01DX009 (ip), vehicle: Klucel (hydroxypropylcellulose) (HPC)) 110 % of control; (dose: 250.0 micrograms/kg/injection, schedule: Q01DX009 (ip), vehicle: Klucel (hydroxypropylcellulose) (HPC)) 118 % of control; (dose: 1000.0 micrograms/kg/injection, schedule: Q01DX009 (ip), vehicle: Klucel (hydroxypropylcellulose) (HPC)) 152 % of control.

Consider `C=CCn1c(NCCN(CC)CC)nc2ccc(Cl)cc2c1=O`, for which the T/C reads like this: (dose: 12.5 mg/kg/injection, schedule: Q01DX009 (ip), vehicle: saline sonified) 100 % of control; (dose: 25.0 mg/kg/injection, schedule: Q01DX009 (ip), vehicle: saline sonified) 104 % of control; (dose: 50.0 mg/kg/injection, schedule: Q01DX009 (ip), vehicle: saline sonified) 104 % of control.

On to `CC(C)C(N)CO` (stereo not given), for which the T/C is 107 % of control under setting [4], 106 % of control under setting [5] and 100 % of control under setting [6].

With `CNC(=O)Oc1ncccc1[N+](=O)[O-]`, the T/C was 98 % of control and 117 % of control under setting [4]; 107 % of control and 119 % of control under setting [5]; 98 % of control and 88 % of control under setting [6].

`O=Cc1ccc(C(Cl)(Cl)Cl)cc1`: the T/C was 123 % of control under setting [7]; 109 % of control (dose: 264.0 mg/kg/injection, schedule: Q04DX003 (ip), vehicle: saline with Tween-80); 159 % of control (dose: 400.0 mg/kg/injection, schedule: Q04DX003 (ip), vehicle: saline with Tween-80).

Take `CC(C)CC(NC=O)C(=O)O` (stereo not given): the T/C is, setting by setting: under setting [8], 104 % of control and 109 % of control; under setting [9], 95 % of control and 100 % of control; under setting [10], 90 % of control.

Take `COSOC`: the T/C (dose: 7.5 mg/kg/injection, schedule: Q04DX003 (ip), vehicle: Klucel (hydroxypropylcellulose) (HPC)) was 105 % of control; the T/C (dose: 15.0 mg/kg/injection, schedule: Q04DX003 (ip), vehicle: Klucel (hydroxypropylcellulose) (HPC)) is 104 % of control; the T/C (dose: 30.0 mg/kg/injection, schedule: Q04DX003 (ip), vehicle: Klucel (hydroxypropylcellulose) (HPC)) is 98 % of control.

Take `Oc1[nH]c2ccccc2c1N=NC(=S)SCc1ccccc1`: the T/C runs as follows: under setting [3], 89 % of control; under setting [11], 87 % of control; under setting [4], 90 % of control.

On to `c1ccc(CC[n+]2ccccc2)cc1`, for which the T/C is, setting by setting: under setting [3], 88 % of control; under setting [11], 87 % of control.

Consider `CNC1CCc2cc(OC)ccc21` (stereo not given), for which the T/C by setting is: under setting [12], 107 % of control; under setting [13], 102 % of control.

For `CC(=O)N(O)C(C)=O`, the T/C by setting is: (dose: 50.0 mg/kg/injection, schedule: Q01DX005 (ip), vehicle: saline) 100 % of control; (dose: 100.0 mg/kg/injection, schedule: Q01DX005 (ip), vehicle: saline) 104 % of control; (dose: 200.0 mg/kg/injection, schedule: Q01DX005 (ip), vehicle: saline) 107 % of control.

As for `COc1ccccc1N=Nc1c(O)n(-c2ccccc2Cl)c(=S)n(-c2ccccc2OC)c1=O`, the T/C under setting [12] was 102 % of control; the T/C under setting [13] was 102 % of control; the T/C (dose: 200.0 mg/kg/injection, schedule: Q01DX001 (ip), vehicle: Klucel (hydroxypropylcellulose) (HPC)) was 101 % of control.

For `CC(=O)c1ccc(C(C)=O)cc1`, the T/C was 101 % of control under setting [4], 95 % of control under setting [5] and 109 % of control under setting [6].

As to `Cc1ccc(NC(=O)c2cc3ccccc3cc2O)c(C)c1.Cc1ccc(NC(=O)c2cc3ccccc3cc2[O-])c(C)c1.[Ni+2]`, the T/C by setting is: under setting [1], 109 % of control; (dose: 3.12 mg/kg/injection, schedule: Q01DX009 (ip), vehicle: saline with Tween-80) 89 % of control; (dose: 6.12 mg/kg/injection, schedule: Q01DX009 (ip), vehicle: saline with Tween-80) 97 % of control; under setting [2], 108 % of control.

On to `CC(=O)OC(C)(C)/C=C/C(=O)[C@](C)(O)[C@H]1[C@H](O)C[C@@]2(C)[C@@H]3CC=C4[C@@H](C=C(O)C(=O)C4(C)C)[C@]3(C)C(=O)C[C@]12C`, for which the T/C was 87 % of control (dose: 0.25 mg/kg/injection, schedule: Q01DX009 (ip), vehicle: saline with Tween-80); 91 % of control (dose: 1.0 mg/kg/injection, schedule: Q01DX009 (ip), vehicle: saline with Tween-80); 93 % of control (dose: 1.0 mg/kg/injection, schedule: Q01DX009 (ip), vehicle: saline); 91 % of control (dose: 2.0 mg/kg/injection, schedule: Q01DX009 (ip), vehicle: saline with Tween-80); 94 % of control (dose: 2.0 mg/kg/injection, schedule: Q01DX009 (ip), vehicle: saline); 91 % of control (dose: 4.0 mg/kg/injection, schedule: Q01DX009 (ip), vehicle: saline with Tween-80). For the same compound, the T/C is 93 % of control (dose: 4.0 mg/kg/injection, schedule: Q01DX009 (ip), vehicle: saline) and 93 % of control (dose: 8.0 mg/kg/injection, schedule: Q01DX009 (ip), vehicle: saline).

Regarding `NC1=C(N2CC2)C(=O)C(N)=C(N2CC2)C1=O`, the T/C (dose: 0.05 mg/kg/injection, schedule: Q01DX009 (ip), vehicle: saline) was 177 % of control; the T/C (dose: 0.1 mg/kg/injection, schedule: Q01DX009 (ip), vehicle: saline) is 187 % of control and 223 % of control; the T/C (dose: 0.2 mg/kg/injection, schedule: Q01DX009 (ip), vehicle: saline) is 256 % of control; the T/C (dose: 0.3 mg/kg/injection, schedule: Q01DX009 (ip), vehicle: saline) was 225 % of control.

As for `COc1cc2c(oc(=O)c3cc(C)cc(OC)c32)c2c(C3OC(C)C(O)C(C)(O)C3O)ccc(O)c12` (stereo not given), the T/C (dose: 1.56 mg/kg/injection, schedule: Q01DX005 (ip), vehicle: DMSO) is 101 % of control; the T/C (dose: 3.12 mg/kg/injection, schedule: Q01DX005 (ip), vehicle: DMSO) is 105 % of control and 109 % of control; the T/C (dose: 6.25 mg/kg/injection, schedule: Q01DX005 (ip), vehicle: DMSO) was 114 % of control; the T/C (dose: 12.5 mg/kg/injection, schedule: Q01DX005 (ip), vehicle: DMSO) was 123 % of control.

Consider `CC1=C([N+](=O)[O-])[C@@H](N2CCOCC2)[C@](C)(N2CCOCC2)S1`, for which the T/C under setting [8] is 105 % of control, the T/C under setting [9] was 105 % of control and the T/C under setting [10] is 105 % of control.

For `NC(N)=NCCCC(N)C(=O)NC(CCC(=O)O)C(=O)O` (stereo not drawn) (H-Arg-Glu-OH; configuration not given here), the T/C reads like this: under setting [11], 91 % of control; under setting [8], 100 % of control; under setting [4], 97 % of control; under setting [9], 100 % of control; under setting [5], 94 % of control; under setting [10], 100 % of control. The T/C reads like this: under setting [6], 103 % of control; (dose: 400.0 mg/kg/injection, schedule: Q01DX009 (ip), vehicle: saline) 88 % of control.

For `Cc1ccc(NC(=O)CCCCC(C)NCC(O)c2ccc(O)c(O)c2)cc1` (stereo not given), the T/C is 97 % of control (dose: 100.0 mg/kg/injection, schedule: Q01DX001 (ip), vehicle: saline) and 100 % of control (dose: 200.0 mg/kg/injection, schedule: Q01DX001 (ip), vehicle: saline).

In the case of `CN=S(=O)(OCCCCCOS(=O)(=NC)c1ccccc1)c1ccccc1` (stereo not given), the T/C under setting [7] is 124 % of control; the T/C (dose: 200.0 mg/kg/injection, schedule: Q01DX009 (ip), vehicle: saline with Tween-80) is 158 % of control and 170 % of control.
